Reference: patent US20050009797A1, “Androstane derivative having substituent in 7- abd 17--positions” (priority 2001, published 2005)
Like-named read-outs stand apart in the source and are kept apart here.

Legend:
[1] = Metabolic stability in rat liver microsome with β-NAD+ (Example 27); format: in vitro ADME; conditions: 37° C.
Procedure: A test tube containing 0.1 mol/L potassium phosphate buffer (345 μL, pH 7.4) was cooled on ice, followed by addition of 5 mg/mL rat liver microsome (50 μL), 0.1 mol/L magnesium chloride (50 μL) and a test compound dissolved in ethanol (adjusted to 1 mg/mL, 5 μL). After pre-incubation at 37° C. for 5 minutes, 10 mM β-Nicotinamide-adenine dinucleotide, oxidized form (β-NAD^+) was added to initiate the reaction. The reaction was continued at 37° C. for 0, 5 and 15 minutes, followed by addition of 0.1 mol/L hydrochloric acid (100 μL) and diethyl ether (5 mL) to stop the reaction. The reaction mixture was stirred for 10 minutes and then centrifuged at 3000 rpm for 10 minutes. The upper organic layer (4.5 mL) was transferred to another test tube, evaporated to dryness under a nitrogen stream, dissolved in 40% acetonitrile (200 μL) and then measured for the peak area of the test compound by high performance liquid chromatography. The residual percentage of the test compound at a given point in time was calculated using the following equation: Residual (%)=[(peak area of the test compound at a given time point)/(peak area of the test compound at 0 minutes)]×100

human androgen receptor [2] = target: T1, human androgen receptor (Homo sapiens, UniProt P10275); assay: Androgen receptor reporter gene assay, antagonistic effects (Example 26); format: cell-based
T1 construct: expressed in transfected cells; host or cells: HeLa cells
T1 sequence (P10275 1-920): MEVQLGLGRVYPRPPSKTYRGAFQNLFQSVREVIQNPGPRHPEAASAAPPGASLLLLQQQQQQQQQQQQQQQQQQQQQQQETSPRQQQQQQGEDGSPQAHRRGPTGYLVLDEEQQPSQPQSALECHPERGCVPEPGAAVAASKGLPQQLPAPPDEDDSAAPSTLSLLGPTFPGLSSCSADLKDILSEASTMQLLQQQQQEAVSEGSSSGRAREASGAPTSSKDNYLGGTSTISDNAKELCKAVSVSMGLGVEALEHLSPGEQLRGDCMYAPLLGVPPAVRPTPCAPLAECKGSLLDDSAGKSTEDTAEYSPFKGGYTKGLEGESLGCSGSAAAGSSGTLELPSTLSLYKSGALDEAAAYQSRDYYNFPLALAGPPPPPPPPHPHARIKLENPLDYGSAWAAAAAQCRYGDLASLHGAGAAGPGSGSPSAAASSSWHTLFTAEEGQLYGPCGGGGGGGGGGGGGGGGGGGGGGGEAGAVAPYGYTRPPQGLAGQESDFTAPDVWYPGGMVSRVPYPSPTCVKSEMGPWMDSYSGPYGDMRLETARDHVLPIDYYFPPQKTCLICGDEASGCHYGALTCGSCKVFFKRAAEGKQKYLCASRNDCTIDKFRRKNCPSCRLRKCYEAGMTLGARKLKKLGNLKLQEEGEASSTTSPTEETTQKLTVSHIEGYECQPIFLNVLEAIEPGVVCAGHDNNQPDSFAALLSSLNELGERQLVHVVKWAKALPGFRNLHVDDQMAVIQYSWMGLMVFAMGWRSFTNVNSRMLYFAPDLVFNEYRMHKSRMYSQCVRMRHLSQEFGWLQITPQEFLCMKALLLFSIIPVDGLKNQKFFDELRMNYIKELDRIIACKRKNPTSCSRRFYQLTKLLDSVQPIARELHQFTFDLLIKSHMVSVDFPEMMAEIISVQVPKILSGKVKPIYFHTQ
Procedure: (§1) Twenty-four hours before transfection, 1.0×10^5 HeLa cells are cultured in a 12-well microplate containing phenol red-free DMEM/5% DCC-FBS. The HeLa cells are then transfected with 500 ng/well MMTV-Luc vector, 100 ng/well pSG5-hAR and 5 ng/well Renilla Luc vector. Transfection is carried out in phenol red-free DMEM medium using 3 μL/well lipofectamine. Nine hours after transfection, the medium is replaced by phenol red-free DMEM/3% DCC-FBS supplemented with 0.1 nmol/L DHT and 1.0 μmol/L of the compound of Formula (I) or a salt or ester thereof according to the present invention. Forty-eight hours after replacement of the medium, the transcriptional activity is determined by a Dual-Luciferase Reporter Assay System according to the following equation: (transcriptional activity)=(firefly luciferase activity)/(Renilla luciferase activity). To effect this assay, reference may be made to J. Biol. Chem., vol. 270, p.
(§2) Twenty-four hours before transfection, 1.0×10^5 HeLa cells were cultured in a 12-well microplate containing phenol red-free DMEM/5% DCC-FBS. The HeLa cells were then transfected with 500 ng/well MMTV-Luc vector, 100 ng/well pSG5-hAR and 5 ng/well Renilla Luc vector. Transfection was carried out in phenol red-free DMEM medium using […] lipofectamine. […] Forty-eight hours after replacement of the medium, the transcriptional activity was determined by a Dual-Luciferase Reporter Assay System according to the following equation: (transcriptional activity)=(firefly luciferase activity)/(Renilla luciferase activity).

human androgen receptor [3] = target: T1, human androgen receptor; assay: Androgen receptor reporter gene assay, agonistic effects (Example 25); format: cell-based; conditions: HeLa cells transfected with MMTV-Luc and pSG5-hAR; 1-10000 nmol/L; 48 h; no DHT
Procedure: as §1, with “cells (purchased from Dainippon Pharmaceutical Co., Ltd.)” for “cells”, “Dulbecco's Modified Eagle Medium (phenol red-free DMEM) supplemented” for “DMEM/5% DCC-FBS. The HeLa cells are then transfected”, “charcoal-treated FBS (DCC-FBS; 5%). […]” for “500 ng/well MMTV-Luc vector, 100 ng/well pSG5-hAR and 5 ng/well Renilla Luc vector.”, “lipofectamine (Gibco BRL).” for “lipofectamine.”, “10” for “0.1 nmol/L DHT and 1.0”, “System (promega)” for “System”
as §2
The transcriptional activity thus determined was used to calculate agonist activity according to the following equation, which in turn was used to calculate a FI5 value (i.e., a concentration at which the compound provides a 5-fold increase in transcriptional activity as compared to the value obtained in the absence of the compound). Agonist activity=(transcriptional activity in the presence of the compound)/(transcriptional activity in the absence of the compound)

castrated rats = castrated rats continuously administered for two weeks; cited from earlier work
androgen receptor = androgen receptor (Homo sapiens, UniProt P10275); conditions: concentration of 10 μM; cited from earlier work
[4] = prostate cancer patients undergoing treatment with flutamide; cited from earlier work
[5] = 50% inhibition of transcriptional activity induced by DHT (0.1 nmol/L), HeLa cells transfected with MMTV-Luc and pSG5-hAR, 48 h, read-out: IC50 value

SMILES | IC50 (human androgen receptor [2]; [5]) [nM] | FI5 value (concentration giving 5-fold increase in transcriptional activity) (human androgen receptor [3]) | also measured
CN(C)C(=O)CCCCCCC[C@@H]1C[C@H]2CC(=O)CC[C@]2(C)[C@H]2CC[C@]3(C)[C@@H](O)CC[C@H]3[C@H]12 [Comparative Example, 17β-hydroxy-7α-{7-(N,N-dimethylaminocarbonyl)heptyl}-5α-androstan-3-one, reference compound] | – | – | Residual (%) 5 minutes [1]: 59.4%; Residual (%) 15 minutes [1]: 15.1%
CC12CCC(=O)C=C1CC(CCCCc1cccc(OCCCCCC(=O)O)c1)C1C2CCC2(C)C1CCC2(C)O (stereo not shown) [Example 13] | 529 | ND (a FI5 value cannot be calculated because the compound provides less than a 5-fold increase in transcriptional activity even at a concentration of 10000 nM) | –
CC(=O)O[C@]1(C(C)=O)CC[C@H]2[C@@H]3C=C(Cl)C4=CC(=O)CC[C@]4(C)[C@H]3CC[C@@]21C [chlormadinone acetate] | – | – | prostate weight (castrated rats): increase in their prostate weight
C[C@]12CCC(=O)C=C1C[C@@H](CCCCc1cccc(OCCCCC(=O)O)c1)[C@@H]1[C@@H]2CC[C@@]2(C)[C@H]1CC[C@]2(C)O [Example 1, 17β-hydroxy-17α-methyl-7α-(4-(3-(4-carboxy-butoxy)phenyl)butyl)-4-androsten-3-one] | 333 | ND* (a FI5 value cannot be calculated because the compound provides less than a 5-fold increase in transcriptional activity even at a concentration of 10000 nM) | –
CC12CCC(=O)C=C1CC(CCCc1cccc(CCCCC(=O)O)c1)C1C2CCC2(C)C1CCC2(C)O (stereo not shown) [Example 24] | 4040 | ND (a FI5 value cannot be calculated because the compound provides less than a 5-fold increase in transcriptional activity even at a concentration of 10000 nM) | –
CC(=O)O[C@]1(C(C)=O)CC[C@H]2[C@@H]3C=C(Cl)C4=CC(=O)[C@@H]5C[C@@H]5[C@]4(C)[C@H]3CC[C@@]21C [cyproterone acetate] | – | – | prostate weight (castrated rats): increase in their prostate weight
CC12CCC(=O)C=C1CC(CCCc1cccc(OCCCC(=O)O)c1)C1C2CCC2(C)C1CCC2(C)O (stereo not shown) [Example 20] | 815 | ND (a FI5 value cannot be calculated because the compound provides less than a 5-fold increase in transcriptional activity even at a concentration of 10000 nM) | –
CC12CCC(=O)C=C1CC(CCCc1ccc(CCCCC(=O)O)cc1)C1C2CCC2(C)C1CCC2(C)O (stereo not shown) [Example 22] | – | ND (a FI5 value cannot be calculated because the compound provides less than a 5-fold increase in transcriptional activity even at a concentration of 10000 nM) | IC50 (human androgen receptor [2]): 717 nM
C[C@]12CCC(=O)C=C1C[C@@H](CCCc1ccc(OCCCC(=O)O)cc1)[C@@H]1[C@@H]2CC[C@@]2(C)[C@H]1CC[C@]2(C)O [Example 18, 17β-hydroxy-17α-methyl-7α-(3-(4-(3-carboxy-propoxy)phenyl)propyl)-4-androsten-3-one] | – | ND (a FI5 value cannot be calculated because the compound provides less than a 5-fold increase in transcriptional activity even at a concentration of 10000 nM) | IC50 (human androgen receptor [2]): 664 nM; Residual (%) 5 minutes [1]: 113.7%; Residual (%) 15 minutes [1]: 110.8%
CC(C)(O)C(=O)Nc1ccc([N+](=O)[O-])c(C(F)(F)F)c1 [Hydroxyflutamide] | – | – | effect on transcriptional activity of androgen receptor (androgen receptor): enhance the transcriptional activity of androgen receptor; blood hydroxyflutamide levels [4]: several
CC12CCC(=O)C=C1CC(CCCCCc1ccc(OCC(=O)O)cc1)C1C2CCC2(C)C1CCC2(C)O (stereo not shown) [Example 7] | 5140 | ND (a FI5 value cannot be calculated because the compound provides less than a 5-fold increase in transcriptional activity even at a concentration of 10000 nM) | –
